Data taken from patent publication US9370521B2, “Targeting GLI proteins in human cancer by small molecules” (The Regents of the University of California, priority 2011, dated 2016).

Key:
melanoma MelJuso = experiment: In vivo efficacy, Mouse Xenograft Model (melanoma MelJuso); settings: 50 mg/kg i.p. daily for 14 days, FIG. 1; for Tumor growth after treatment: vs vehicle
Description: (§1) The administered compounds were tested in vivo in the mouse xenograft model bearing human cancer cells. Briefly, female athymic nude mice strain NCRNU-M (5-10 weeks old, 20-25 grams in weight; Taconic, Germantown, N.Y.) was maintained in pathogen-free conditions. Three human cancer cell lines: NSCLC A549, melanoma MelJuso, and mesothelioma MS-1 were used. Five or ten mice were used in each group and injected s.c. with 3×10^6 cancer cells in the dorsal area in a volume of 100 μl. After inoculation, human cancer cells were allowed to grow in mice for 10-13 days to become visible tumor nodules. Animals were then injected with a compound of the embodiments at a dose of 50 mg/kg body weight (1 mg/mouse per day). Vehicle alone was used as control. The compounds and controls were adjusted in 40 ul volume for i.p. injection in the abdomens of the mice. Injections were performed daily around the same time for 14 days. Tumors were allowed to grow for 1-2 additional weeks after completion of the compound treatments. Tumor size was measured every three to four days, and tumor volumes were calculated using width (x) and length (y) (x^2y/2, where x<y). Throughout this period, general toxicity of the treatments was also monitored by measuring body weight of the mice. Data was presented as mean values (±S.D.).
In vivo efficacy study of Compounds 1, 2, 4, and 6 were performed using a Mouse Xenograft Model (Melanoma MelJuso). Mice were injected s.c. with 3×10^6 cells in the dorsal area in a volume of 100 μl. 13 days after inoculation, the mice started receiving treatments with the administered compound at a dose of 50 mg/kg body weight daily for 14 days (n=10). Vehicle alone was used as control (n=10). The administered compounds and vehicle were adjusted in a volume of 40 μl for i.p. injection in the abdomens of the mice. Tumor size and tumor volumes were calculated as described above.

[1] = test system: Hedgehog signaling pathway; experiment: Quantitative real-time RT-PCR of Hh pathway genes in xenograft tumors; assay type: in vivo, mouse; settings: Melanoma tumor (MelJuso) xenograft, pooled tumor from two mice, FIG. 4
Description: (§2) Total RNA was isolated using Qiagen RNeasy Mini Kit (Valencia, Calif.). Hybridization probes and primers (Table 1) were purchased from Applied Biosystems (ABI, Foster City, Calif.). cDNA synthesis and Taqman® PCR were performed according to the manufactures' protocols. The gene expression was assayed in triplicate in ABI 7300 Real-time PCR System. Samples were normalized to their housekeeping gene GAPDH and then calculated by using 2^−dCt method.
To examine whether Compounds 1, 2, 4, and 6 suppressed tumor growth through inhibition of the Hedgehog signaling pathway in vivo, expression of the key components and direct target genes of the Hh pathway (e.g. Gli1, Gli2, Gli3, HHIP and Cyclin D1) were analyzed by quantitative real-time RT-PCR using total RNA isolated from the xenograft tumors. GAPDH served as a control. This RT-PCR analysis was performed using a “pooled” tumor from two randomly selected mice of each group with reasonable size tumors. […] The results are shown in FIG. 4, where C is control and V is vehicle.

Wnt signaling pathway = experiment: Quantitative real-time RT-PCR of Wnt pathway genes in xenograft tumors; assay type: in vivo, mouse; settings: Melanoma tumor xenograft, compared to controls, FIG. 4
Description: as §2
To examine whether Compounds 1, 2, 4, and 6 suppressed tumor growth through inhibition of the Wnt signaling pathway in vivo, expression of the key components and direct target genes of the Wnt pathway (e.g. Wnt2, Axin2, EGFR, and Cyclin D1) were analyzed by quantitative real-time RT-PCR using total RNA isolated from the xenograft tumors. GAPDH served as a control. This RT-PCR analysis was performed using a “pooled” tumor from two randomly selected mice of each group with reasonable size tumors. […] The results are shown in FIG. 4, where C is control and V is vehicle.

[2] = Preliminary in vivo toxicity: leukocyte population and body weight after in vivo treatment; set-up: species or system mouse; settings: mice; for Changes of leukocyte population: at completion of the in vivo studies, FIG. 5; for Loss of body weight: during the course of drug administration, FIG. 6
Description: as §1
(§3) After the in vivo studies were completed, different organs were resected from mice. These organs included liver, lung, heart, kidney, intestines, ovary, brain, spleen, skin, and muscle. The specimens were fixed in 4% buffered formaldehyde, embedded in paraffin, sectioned, and histologically analyzed by hematoxylin and eosin (HE) staining. The HE stained slides were examined by a mouse pathologist for toxicity evidence from all the organs as compared with vehicle controls. In addition, leukocytes (WBC: white blood cell, NE: neutrophil, LY: lymphocyte, MO: monocyte, EO: eosinophil, BA: basophil) from each animal from all treatment groups were collected and leukocyte population was counted through a blood cell counter.
(§4) As preliminary in vivo toxicity study of Compounds 1, 2, 4, and 6, it was examined if there were changes of leukocyte population and loss of body weight in the mice after the treatment. At the completion of the in vivo studies as described herein, leukocytes (WBC: white blood cell, NE: neutrophil, LY: lymphocyte, MO: monocyte, EO: eosinophil, BA: basophil) from each animal from all treatment groups were collected and leukocyte population was counted through a blood cell counter. Body weights of control groups (n=10) and the treated group (n=10) were measured using a scale during the course of drug administration. […] In an additional toxicity study, effect of different doses of compounds 4 and 6 on the body weight of mice was examined. The compounds were i.p. injected in the abdomens at 3 different doses: 25, 50, and 100 mg/kg body weight to mice (3 mice per dosing group) for 6 consecutive days.

[3] = Histological examination (H&E) of organs for toxicity; assay type: in vivo; settings: mice, i.p. two doses daily for 6 days, FIGS. 8-11
Source text: as §3
To analyze toxicity of the Compounds 1, 2, 4, and 6 in vivo, each group (three mice) was i.p. injected with two doses of each Compound daily for 6 days, and then major mouse organs, such as liver, spleen, kidney, and heart were resected from the mice. The specimens will be fixed in 4% buffered formaldehyde, embedded in paraffin, sectioned and histologically analyzed by hematoxylin and eosin (H&E) staining.

[4] = Additional toxicity study: body weight at different doses; assay type: in vivo, mouse; settings: mice, i.p. 25, 50 and 100 mg/kg for 6 consecutive days, FIG. 7
Description: Each dosing group contained 3 mice. The body weight of mice was measured using a scale. Results are the means±SD (error bars).
as §4

human NSCLC cell lines = experiment: Combination treatment, MTS cell proliferation assay, NSCLC cell lines; assay type: cell-based; settings: lung cancer cells, 72 hours, Combination Index
Source text: (§5) Another assay for determining the number of viable cells in proliferation or cytotoxicity assays is the MTS assay, a colorimetric method. MTS assay reagents are commercially available (Promega Corp., Madison, Wis.). The reagent contains a tetrazolium compound [3-(4,5-dimethylthiazol-2-yl)-5-(3-carboxymethoxyphenyl)-2-(4-sulfophenyl)-2H-tetrazolium, inner salt; MTS] and an electron coupling reagent (phenazine ethosulfate; PES). PES has enhanced chemical stability, which allows it to be combined with MTS to form a stable solution. The MTS tetrazolium compound (Owen's reagent) is bioreduced by cells into a colored formazan product that is soluble in tissue culture medium. This conversion may be accomplished by NADPH or NADH produced by dehydrogenase enzymes in metabolically active cells. The quantity of formazan product as measured by the absorbance at 490 nm is directly proportional to the number of living cells in culture. Because the MTS formazan product is soluble in tissue culture medium, this assay requires fewer steps than procedures that use tetrazolium compounds such as MTT. The formazan product of MTT reduction is a crystalline precipitate that requires an additional step in the procedure to dissolve the crystals before recording absorbance readings at 570 nm.
(§6) Combination treatments of the Compounds with several chemotherapies: erlotinib (Tarceva®), PI3K inhibitor LY294002, TGFβ inhibitor SB431542, and pemetrexed (Alimta®) were performed in human NSCLC and MM cell lines (FIGS. 12-17). In all experiments, NSCLC and MM cell lines were treated with different doses of each compound or combination for 72 hours, and MTS assays were performed to determine the cell proliferations. Combination Index (CI), calculated by CalcuSyn software (Biosoft, Cambridge, UK), was applied to describe the effect of the combination effects of two compounds, where CI<1 indicates Synergism, CI=1 indicates Additive effects, and CI>1 indicates Antagonism. Student's t-tests were applied for statistical analysis.

[5] = test system: human MM cell lines (mesothelioma cells); experiment: Combination treatment, MTS cell proliferation assay, MM (mesothelioma) cell lines; assay type: cell-based; settings: 72 hours, Combination Index
Source text: as §5, §6

mesothelioma MS-1 = experiment: In vivo efficacy, Mouse Xenograft Model (mesothelioma MS-1); settings: MS-1 xenograft, 50 mg/kg i.p. daily for 14 days, vs control group, FIG. 2
Description: as §1, with “Data was presented as mean values (±S.D.).” left out
Model (Mesothelioma MS-1). […] Tumor sizes was measured twice weekly until the completion of the experiments. […]

NSCLC A549 = experiment: In vivo efficacy, Mouse Xenograft Model (lung cancer A549); settings: 50 mg/kg i.p. daily for 14 days then another 7 days, tumors weighed day 43, vs control group, FIG. 3
Description: as §1, with “Tumors were allowed to grow for 1-2 additional weeks after completion of the compound treatments.” left out, “Data was presented as mean values (±S.D.).” left out
In vivo efficacy study of Compounds 1 and 4 in Mouse Xenograft Model (NSCLC A549) was examined. […] 43 days after the initial tumor inoculation, tumors were dissected from the mice of each group and their weights were measured using a scale. […]

| Compound | Tumor weight after treatment (melanoma MelJuso) | Tumor growth after treatment (melanoma MelJuso) | Hh signaling (expression of Gli1, Gli2, Gli3, HHIP, Cyclin D1) in tumor [1] | Expression of the key indicator of canonical Wnt activation in tumor (Wnt signaling pathway) | Changes of leukocyte population [2] | Loss of body weight [2] | Toxicity in organs (liver, spleen, kidney, heart), H&E histology [3] | Loss of body weight [4] | Combination effect with PI3K inhibitor LY294002 (human NSCLC cell lines; FIG. 14) | Combination effect with TGFβ inhibitor SB431542 (human NSCLC cell lines; FIG. 16) | Combination effect with PI3K inhibitor LY294002 ([5]; FIG. 15) | Combination effect with pemetrexed (Alimta) ([5]; FIG. 17) | Tumor weight after treatment (mesothelioma MS-1) | Tumor weight after treatment (NSCLC A549) | Combination effect with erlotinib (Tarceva) (human NSCLC cell lines; FIG. 12) | Combination effect with erlotinib (Tarceva) ([5]; FIG. 13) |
| --- | --- | --- | --- | --- | --- | --- | --- | --- | --- | --- | --- | --- | --- | --- | --- | --- |
| O=C(NCc1ccc(O)cc1)C1C(c2ccccc2)=NN(c2ccccc2)C1c1ccccc1 (stereo not drawn) [Compound 2, 1,3,5-triphenyl-4,5-dihydro-1H-pyrazole-4-carboxylic acid 4-hydroxy-benzylamide] | significantly decreased | dramatically suppressed | inhibited | significantly down-regulated | No noticeable changes | No noticeable changes of leukocyte population or loss of the body weight | No noticeable toxicity |  |  |  |  |  |  |  |  |  |
| CC(C)(CO)CCCNC(=O)C1C(c2ccc(F)cc2)=NN(c2ccccc2)C1c1cccc(F)c1 (stereo not drawn) [Compound 6, 3-(4-fluoro-phenyl)-5-(3-fluoro-phenyl)-1-phenyl-4,5-dihydro-1H-pyrazole-4-carboxylic acid (5-hydroxy-4,4-dimethyl-pentyl)-amide] | significantly decreased | dramatically suppressed | inhibited |  | No noticeable changes | No noticeable changes of leukocyte population or loss of the body weight | No noticeable toxicity | no noticeable loss | synergy | synergy | synergy | synergy |  |  |  |  |
| CCCC1C(C(=O)NCCCC(C)(C)CO)C(c2ccc(F)cc2)=NN1c1ccccc1 (stereo not drawn) [Compound 4, 3-(4-fluoro-phenyl)-1-phenyl-5-propyl-4,5-dihydro-1H-pyrazole-4-carboxylic acid (5-hydroxy-4,4-dimethyl-pentyl)-amide] | significantly decreased | dramatically suppressed | inhibited | significantly down-regulated | No noticeable changes | No noticeable changes of leukocyte population or loss of the body weight | No noticeable toxicity | no noticeable loss |  |  |  |  | significantly decreased | significantly decreased | synergy | synergy |
| CC(C)(CO)CCCNC(=O)C1C(c2ccccc2)=NN(c2ccccc2)C1c1ccsc1 (stereo not drawn) [Compound 1, 1,3-diphenyl-5-thiophen-3-yl-4,5-dihydro-1H-pyrazole-4-carboxylic acid (5-hydroxy-4,4-dimethyl-pentyl)-amide] | significantly decreased | dramatically suppressed | inhibited | significantly down-regulated | No noticeable changes | No noticeable changes of leukocyte population or loss of the body weight | No noticeable toxicity |  |  |  |  |  | significantly decreased | significantly decreased |  |  |
